Reference: patent publication US20100041089A1, “IMPROVED METHOD FOR DETECTING CHEMICAL […]” (priority 2006, published 2010)

System: yeast genes (expressed mRNA)
Experiment: DNA chip measurement of expressed mRNA of yeast genes after culture with a toxic chemical substance
Assay type: cell-based, Saccharomyces cerevisiae S288C
Method in brief: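 S. cerevisiae S288C grown at 25 °C in YPD, exposed in log phase for 2 h to a toxicant at growth-inhibiting, non-lethal concentration. Cy3/Cy5-labelled cDNA from poly(A) mRNA hybridized to whole-genome chip at 65 °C >12 h. Ratio to untreated control, ≥2 significant.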

`CN(C)C(=S)SSC(=S)N(C)C` [(10), Tetramethylthiuram disulfide] was tested, and the “The level of expressed mRNA in the presence of chemical substance/The level of expressed mRNA in the absence of chemical substance” value (yeast gene YNL077W) was 5.1, the “The level of expressed mRNA in the presence of chemical substance/The level of expressed mRNA in the absence of chemical substance” value (yeast gene YNL092W, cultured two hours with substance) was 1.5 and the “The level of expressed mRNA in the presence of chemical substance/The level of expressed mRNA in the absence of chemical substance” value (yeast gene YNL115C, cultured two hours with substance) was 1.9. The “The level of expressed mRNA in the presence of chemical substance/The level of expressed mRNA in the absence of chemical substance” value (yeast gene YNL156C, cultured two hours with substance) was 1.9, the “The level of expressed mRNA in the presence of chemical substance/The level of expressed mRNA in the absence of chemical substance” value (yeast gene YNL190W, cultured two hours with substance) was 1.1 and the “The level of expressed mRNA in the presence of chemical substance/The level of expressed mRNA in the absence of chemical substance” value (yeast gene YNL195C, cultured two hours with the chemical substance) was 11.7. For the same molecule, the “The level of expressed mRNA in the presence of chemical substance/The level of expressed mRNA in the absence of chemical substance” value (yeast gene YNL208W, cultured two hours with substance) was 3.1, the “The level of expressed mRNA in the presence of chemical substance/The level of expressed mRNA in the absence of chemical substance” value (yeast gene YNL234W, cultured two hours with substance) was 3.3 and the “The level of expressed mRNA in the presence of chemical substance/The level of expressed mRNA in the absence of chemical substance” value (yeast gene YNL277W) was 10.9. For the same molecule, the “The level of expressed mRNA in the presence of chemical substance/The level of expressed mRNA in the absence of chemical substance” value (yeast gene YNL281W, cultured two hours with substance) was 1.6, the “The level of expressed mRNA in the presence of chemical substance/The level of expressed mRNA in the absence of chemical substance” value (yeast gene YNL300W, cultured two hours with substance) was 0.2 and the “The level of expressed mRNA in the presence of chemical substance/The level of expressed mRNA in the absence of chemical substance” value (yeast gene YNL305C, cultured two hours with substance) was 2.1. For the same molecule, the “The level of expressed mRNA in the presence of chemical substance/The level of expressed mRNA in the absence of chemical substance” value (yeast gene YNL331C) was 36.3, the “The level of expressed mRNA in the presence of chemical substance/The level of expressed mRNA in the absence of chemical substance” value (yeast gene YNL331C, cultured for two hours with substance) was 36.3 and the “The level of expressed mRNA in the presence of chemical substance/The level of expressed mRNA in the absence of chemical substance” value (yeast gene YNR064C, cultured two hours with substance) was 2.1. The “The level of expressed mRNA in the presence of chemical substance/The level of expressed mRNA in the absence of chemical substance” value (yeast gene YNR068C, cultured two hours with substance) was 14.4, the “The level of expressed mRNA in the presence of chemical substance/The level of expressed mRNA in the absence of chemical substance” value (yeast gene YNR073C) was 16.8 and the “The level of expressed mRNA in the presence of chemical substance/The level of expressed mRNA in the absence of chemical substance” value (yeast gene YOL002C, cultured two hours with the substance) was 0.3. The “The level of expressed mRNA in the presence of chemical substance/The level of expressed mRNA in the absence of chemical substance” value (yeast gene YOL032W, cultured two hours with substance) was 3.0, the “The level of expressed mRNA in the presence of chemical substance/The level of expressed mRNA in the absence of chemical substance” value (yeast gene YOL036W, cultured two hours with substance) was 2.8 and the “The level of expressed mRNA in the presence of chemical substance/The level of expressed mRNA in the absence of chemical substance” value (yeast gene YOL047C, cultured two hours with substance) was 2.3. For the same molecule, the “The level of expressed mRNA in the presence of chemical substance/The level of expressed mRNA in the absence of chemical substance” value (yeast gene YOL058W) was 15.7, the “The level of expressed mRNA in the presence of chemical substance/The level of expressed mRNA in the absence of chemical substance” value (yeast gene YOL071W, cultured two hours with substance) was 2.3 and the “The level of expressed mRNA in the presence of chemical substance/The level of expressed mRNA in the absence of chemical substance” value (yeast gene YOL082W, cultured two hours with substance) was 2.0. For the same molecule, the “The level of expressed mRNA in the presence of chemical substance/The level of expressed mRNA in the absence of chemical substance” value (yeast gene YOL083W, cultured two hours with substance) was 2.3, the “The level of expressed mRNA in the presence of chemical substance/The level of expressed mRNA in the absence of chemical substance” value (yeast gene YOL101C, cultured two hours with substance) was 0.3 and the “The level of expressed mRNA in the presence of chemical substance/The level of expressed mRNA in the absence of chemical substance” value (yeast gene YOL117W, cultured two hours with substance) was 4.1. The “The level of expressed mRNA in the presence of chemical substance/The level of expressed mRNA in the absence of chemical substance” value (yeast gene YOL131W, cultured two hours with substance) was 8.1, the “The level of expressed mRNA in the presence of chemical substance/The level of expressed mRNA in the absence of chemical substance” value (yeast gene YOL150C, cultured two hours with substance) was 8.3 and the “The level of expressed mRNA in the presence of chemical substance/The level of expressed mRNA in the absence of chemical substance” value (yeast gene YOL162W, cultured two hours with substance) was 6.8. For the same molecule, the “The level of expressed mRNA in the presence of chemical substance/The level of expressed mRNA in the absence of chemical substance” value (yeast gene YOL163W (transport facilitation protein gene)) was 6.2, the “The level of expressed mRNA in the presence of chemical substance/The level of expressed mRNA in the absence of chemical substance” value (yeast gene YOL165C) was 23.3 and the “The level of expressed mRNA in the presence of chemical substance/The level of expressed mRNA in the absence of chemical substance” value (yeast gene YOL165C, cultured for two hours with substance) was 23.3. For the same molecule, the “The level of expressed mRNA in the presence of chemical substance/The level of expressed mRNA in the absence of chemical substance” value (yeast gene YOR019W, cultured two hours with substance) was 7.1, the “The level of expressed mRNA in the presence of chemical substance/The level of expressed mRNA in the absence of chemical substance” value (yeast gene YOR197W, cultured two hours with substance) was 0.7 and the “The level of expressed mRNA in the presence of chemical substance/The level of expressed mRNA in the absence of chemical substance” value (yeast gene YOR248W, cultured two hours with substance) was 0.4. For the same molecule, the “The level of expressed mRNA in the presence of chemical substance/The level of expressed mRNA in the absence of chemical substance” value (yeast gene YOR382W, cultured two hours with substance) was 12.8, the “The level of expressed mRNA in the presence of chemical substance/The level of expressed mRNA in the absence of chemical substance” value (yeast gene YOR383C) was 4.5 and the “The level of expressed mRNA in the presence of chemical substance/The level of expressed mRNA in the absence of chemical substance” value (yeast gene YOR391C, cultured two hours with substance) was 18.1. For the same molecule, the “The level of expressed mRNA in the presence of chemical substance/The level of expressed mRNA in the absence of chemical substance” value (yeast gene YPL017C, metabolism protein genes) was 6.7, the “The level of expressed mRNA in the presence of chemical substance/The level of expressed mRNA in the absence of chemical substance” value (yeast gene YPL052W, cultured two hours with substance) was 4.8 and the “The level of expressed mRNA in the presence of chemical substance/The level of expressed mRNA in the absence of chemical substance” value (yeast gene YPL087W, cultured two hours with substance) was 2.2. For the same molecule, the “The level of expressed mRNA in the presence of chemical substance/The level of expressed mRNA in the absence of chemical substance” value (yeast gene YPL171C, cultured for two hours with substance) was 50.6, the “The level of expressed mRNA in the presence of chemical substance/The level of expressed mRNA in the absence of chemical substance” value (yeast gene YPL196W, cultured two hours with substance) was 2.8 and the “The level of expressed mRNA in the presence of chemical substance/The level of expressed mRNA in the absence of chemical substance” value (yeast gene YPL206C, cultured two hours with substance) was 1.1. For the same molecule, the “The level of expressed mRNA in the presence of chemical substance/The level of expressed mRNA in the absence of chemical substance” value (yeast gene YPL222W, cultured two hours with substance) was 3.4, the “The level of expressed mRNA in the presence of chemical substance/The level of expressed mRNA in the absence of chemical substance” value (yeast gene YPL223C (stress protein genes)) was 16.5 and the “The level of expressed mRNA in the presence of chemical substance/The level of expressed mRNA in the absence of chemical substance” value (yeast gene YPR023C, cultured two hours with substance) was 2.8. The “The level of expressed mRNA in the presence of chemical substance/The level of expressed mRNA in the absence of chemical substance” value (yeast gene YPR079W, cultured two hours with substance) was 2.8 and the “The level of expressed mRNA in the presence of chemical substance/The level of expressed mRNA in the absence of chemical substance” value (yeast gene YPR151C, cultured two hours with substance) was 9.5.
